Tests used:
Format in all cases: cell-based
[1] = test system: IL-1β production in human whole blood; assay: Endotoxin-induced IL-1β production from human whole blood; details: LPS 100 ng/ml, 3 hours, read-out: HWB IL-1β IC50
Protocol: (§1) Human whole blood (HWB; 25-45 ml) was collected from an NSAID-free donor into vacutainer collection tubes containing sodium heparin (10 ml, 158 USP units), pooled and rocked gently before being distributed into each well of a 96-well round bottom tissue culture plate ([…]). Compounds ([…]/well, concentration response) are added and mixed gently for 15-20 seconds using a disposable 96 polypropylene pin tool before the plates are incubated at 37° C./5% CO2 for 1 hour. The HWB is stimulated with LPS (100 ng/ml) in a final assay volume of […]. After 3 hours, the plates are spun at 240×g for 5 minutes to pellet the red cells. The plasma is carefully transferred to another 96-well round bottom plate and diluted 2-fold with assay media (DMEM containing 10% fetal bovine serum (FBS) plus antibiotics). Finally, the diluted plasma ([…]/well) is transferred to Meso Scale detection plates for determination of IL-1, IL-6 or TNFα.

[2] = test system: TNFα production in human whole blood; assay: Endotoxin-induced TNFα production from human whole blood; details: LPS 100 ng/ml, 3 hours, read-out: HWB TNFα IC50
Protocol: as §1

[3] = test system: TNFα production in U937 cells; assay: LPS-induced TNFα production in differentiated U937 cells; details: Homo sapiens, U-937, LPS 0.1 μg/mL for 4 hours
Protocol: Therefore, inhibition of the p38 MAPK pathway will lower the inflammatory response by decreasing biosynthesis of proinflammatory cytokines. […] Evaluation of the potency and efficacy of p38 inhibitors to block cytokine production is carried out using the human U937 cell line. The U937 human pre-monocytic cell line is obtained from the American Type Culture Collection (Rockville, Md.). These cells are differentiated to a monocytic/macrophage phenotype as described by Burnette (Burnette et al, (2009). SD0006: a potent, selective and orally available inhibitor of p38 kinase, Pharmacology 84(1):42-60). Differentiated U937 cells are seeded into 96-well tissue culture plates (200,000 cells/well) in complete media. After 24 hours, the cells are pretreated for 60 minutes in the presence or absence of compound and then stimulated with LPS (0.1 μg/mL) for 4 hours. Culture media are then collected for determination of TNFα, IL-6 or IL-1β levels by ELISA. Cytokine concentrations are extrapolated from recombinant protein standard curves using a four-parameter logistic model and solving for IC50 after iterating to the best least-squares fit.

[4] = test system: IL-6 production in human whole blood; assay: Endotoxin-induced IL-6 production from human whole blood; details: LPS 100 ng/ml, 3 hours, read-out: HWB IL-6 IC50
Protocol: as §1

[5] = test system: IL-6 production in A549 cells; assay: IL-1-induced IL-6 production in A549 cells; details: Homo sapiens, 3 hours stimulation
Protocol: Adherent A549 cells (approximately 5 million per T75 cm^2 tissue culture flask) are grown in F-12K media containing 10% fetal bovine serum (FBS) plus antibiotics. The cells are trypsinized, washed and resuspended at 0.3 million per milliliter. A549 cells are then distributed into each well of a 96-well flat bottom tissue culture plate ([…]) and the 30,000 cells/well are allowed to recover, incubated, overnight. On the day of the assay fresh media ([…]) is added to the plates followed by the addition of compound ([…]/well, concentration response) for 1 hour. […] After 3 hours, cultured media ([…]/well) is transferred from the assay plate to a Meso Scale custom coated detection plate for determination of IL-6 levels. […] Read buffer ([…]/well, MSD 4× read buffer diluted 4-fold with dH2O) is added and the plate is read using the Meso Scale Sector Imager 6000. Upon electrical stimulation of the detection plate, co-reactants in the read buffer enhance an electrochemical reaction resulting in the release of energy in the form of light. This signal is captured by an internal CCD camera and quantitated. Viability of A549 cells is determined using an MTT assay. […] Isopropanol ([…]) is added to solubilize the resulting formazan crystals and the plate is read at 570 nm/650 nm using a Molecular Devices SpectraMax spectrophotometer.

Question: `Cc1cnc(-c2ccnc(C(C)(C)O)n2)cc1-n1c(C)cc(OCc2ncc(F)cc2F)c(Cl)c1=O` [Compound 49, 3-chloro-4-((3,5-difluoropyridin-2-yl)methoxy)-2′-(2-(2-hydroxypropan-2-yl)pyrimidin-4-yl)-5′,6-dimethyl-2H-[1,4′-bipyridin]-2-one] was tested. Which IC50 [1] did it give?
Answer: 6 nM

Question: And the IC50 [2]?
Answer: 13 nM

Question: And the IC50 [3]?
Answer: 1.6 nM

Question: And the IC50 [4]?
Answer: 35 nM

Question: What about the IC50 [5] of the same molecule?
Answer: 1.8 nM

— patent publication US9115089B2, “Methyl/fluoro-pyridinyl-methoxy substituted pyridinone-pyridinyl compounds and fluoro-pyrimidinyl-methoxy substituted pyridinone-pyridinyl compounds” (CONFLUENCE LIFE SCIENCES, INC., priority 2013, dated 2015)
